According to PubChem BioAssay (NCI):
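Where inhibition never reached the appropriate level, the endpoint shown equals the highest concentration tested. Otherwise, values were interpolated linearly from a five-concentration, 48-hour dose response in 96-well plates. At the GI50, growth is halved. TGI: concentration producing complete growth inhibition.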

How the values were obtained:
Assay in all cases: inhibition of tumour cell growth, NCI panel, 48 h; in the data active = GI50 below about 0.43 µM; inactive = the rest
SF-295 CNS = tested on: SF-295 CNS
IGROV1 ovarian = tested on: IGROV1 ovarian
PC-3 prostate = tested on: PC-3 prostate
SW-620 colon = tested on: SW-620 colon
SN12C renal = tested on: SN12C renal
MALME-3M melanoma = tested on: MALME-3M melanoma
MDA-MB-231 breast = tested on: MDA-MB-231 breast
SK-MEL-28 melanoma = tested on: SK-MEL-28 melanoma
SK-OV-3 ovarian = tested on: SK-OV-3 ovarian
OVCAR-4 ovarian = tested on: OVCAR-4 ovarian
SR leukemia = tested on: SR leukemia
T-47D breast = tested on: T-47D breast
786-0 renal = tested on: 786-0 renal
OVCAR-3 ovarian = tested on: OVCAR-3 ovarian
MOLT-4 leukemia = tested on: MOLT-4 leukemia
BT-549 breast = tested on: BT-549 breast
HOP-92 NSCLC = tested on: HOP-92 NSCLC
NCI-H226 lung = tested on: NCI-H226 lung
NCI/ADR-RES ovarian = tested on: NCI/ADR-RES ovarian
SK-MEL-5 melanoma = tested on: SK-MEL-5 melanoma
HL-60(TB) leukemia = tested on: HL-60(TB) leukemia
UACC-257 melanoma = tested on: UACC-257 melanoma
HCC-2998 colon = tested on: HCC-2998 colon
U251 CNS = tested on: U251 CNS
COLO 205 colon = tested on: COLO 205 colon
MDA-MB-435 = tested on: MDA-MB-435
HS 578T breast = tested on: HS 578T breast
CAKI-1 renal = tested on: CAKI-1 renal
SF-268 CNS = tested on: SF-268 CNS
HOP-62 NSCLC = tested on: HOP-62 NSCLC
KM12 colon = tested on: KM12 colon
OVCAR-8 ovarian = tested on: OVCAR-8 ovarian
RXF 393 renal = tested on: RXF 393 renal
SF-539 CNS = tested on: SF-539 CNS
TK-10 renal = tested on: TK-10 renal
MCF7 breast = tested on: MCF7 breast
UO-31 renal = tested on: UO-31 renal
CCRF-CEM leukemia = tested on: CCRF-CEM leukemia
RPMI-8226 leukemia = tested on: RPMI-8226 leukemia
LOX IMVI melanoma = tested on: LOX IMVI melanoma
A549 NSCLC = tested on: A549 NSCLC
NCI-H460 lung = tested on: NCI-H460 lung
HCT-15 colon = tested on: HCT-15 colon
UACC-62 melanoma = tested on: UACC-62 melanoma
NCI-H522 lung = tested on: NCI-H522 lung
OVCAR-5 ovarian = tested on: OVCAR-5 ovarian
DU-145 prostate = tested on: DU-145 prostate
A498 renal = tested on: A498 renal
NCI-H23 lung = tested on: NCI-H23 lung
HCT-116 colon = tested on: HCT-116 colon
K-562 leukemia = tested on: K-562 leukemia
EKVX NSCLC = tested on: EKVX NSCLC
ACHN renal = tested on: ACHN renal
SNB-19 CNS = tested on: SNB-19 CNS
HT29 colon = tested on: HT29 colon
M14 melanoma = tested on: M14 melanoma

COc1ccc(Cn2cc3c(c2-c2cc(OC)c(OC)c(OC)c2)CCc2cnoc2-3)cc1N
1940 nM: TGI (KM12 colon)
1390 nM: TGI (SR leukemia)
355 nM: TGI (DU-145 prostate)
1710 nM: TGI (HT29 colon)
> 86900 nM: TGI (UACC-62 melanoma)
524 nM: TGI (A498 renal)
184 nM: TGI (HL-60(TB) leukemia)
38.4 nM: TGI (MDA-MB-435)
active: GI50 (SF-295 CNS) 36.9 nM | GI50 (IGROV1 ovarian) 81.8 nM | GI50 (PC-3 prostate) 75.1 nM | GI50 (SW-620 colon) 38 nM | GI50 (SN12C renal) 79.5 nM | GI50 (MALME-3M melanoma) 38.2 nM | GI50 (MDA-MB-231 breast) 158 nM | GI50 (SK-MEL-28 melanoma) 79.7 nM | GI50 (SK-OV-3 ovarian) 44.7 nM | GI50 (OVCAR-4 ovarian) 103 nM | GI50 (SR leukemia) 32 nM | GI50 (T-47D breast) 34 nM | GI50 (786-0 renal) 59.9 nM | GI50 (OVCAR-3 ovarian) 26 nM | GI50 (MOLT-4 leukemia) 64.8 nM | GI50 (BT-549 breast) 173 nM | GI50 (NCI/ADR-RES ovarian) 35.7 nM | GI50 (SK-MEL-5 melanoma) 32.5 nM | GI50 (HL-60(TB) leukemia) 26.8 nM | GI50 (HCC-2998 colon) 88.2 nM | GI50 (U251 CNS) 52.3 nM | GI50 (COLO 205 colon) 251 nM | GI50 (MDA-MB-435) 14.1 nM | GI50 (HS 578T breast) 34.3 nM | GI50 (CAKI-1 renal) 31.9 nM | GI50 (SF-268 CNS) 79.2 nM | GI50 (HOP-62 NSCLC) 52.1 nM | GI50 (KM12 colon) 40.1 nM | GI50 (OVCAR-8 ovarian) 70.2 nM | GI50 (RXF 393 renal) 31.9 nM | GI50 (SF-539 CNS) 34.4 nM | GI50 (TK-10 renal) 68.9 nM | GI50 (MCF7 breast) 36 nM | GI50 (UO-31 renal) 228 nM | GI50 (CCRF-CEM leukemia) 38.4 nM | GI50 (RPMI-8226 leukemia) 48.9 nM | GI50 (LOX IMVI melanoma) 64.1 nM | GI50 (A549 NSCLC) 82.1 nM | GI50 (NCI-H460 lung) 37.7 nM | GI50 (HCT-15 colon) 45.4 nM | GI50 (UACC-62 melanoma) 44.7 nM | GI50 (NCI-H522 lung) 18 nM | GI50 (OVCAR-5 ovarian) 324 nM | GI50 (DU-145 prostate) 34.3 nM | GI50 (A498 renal) 23.9 nM | GI50 (NCI-H23 lung) 50.7 nM | GI50 (HCT-116 colon) 45 nM | GI50 (K-562 leukemia) 35.1 nM | GI50 (EKVX NSCLC) 235 nM | GI50 (ACHN renal) 73.1 nM | GI50 (SNB-19 CNS) 62.1 nM | GI50 (HT29 colon) 307 nM | GI50 (M14 melanoma) 50.7 nM
> 50900 nM: TGI (UO-31 renal)
inactive: GI50 (HOP-92 NSCLC) 4580 nM | GI50 (NCI-H226 lung) 537 nM | GI50 (UACC-257 melanoma) > 23100 nM
63.1 nM: TGI (OVCAR-3 ovarian)
1240 nM: TGI (SK-MEL-5 melanoma)
> 72600 nM: TGI (IGROV1 ovarian)
> 23200 nM: TGI (786-0 renal)
> 40000 nM: TGI (MCF7 breast)
> 45900 nM: TGI (MOLT-4 leukemia)
2840 nM: TGI (HCT-116 colon)
> 100000 nM: TGI (SF-295 CNS) | TGI (PC-3 prostate) | TGI (SW-620 colon) | TGI (SN12C renal) | TGI (MALME-3M melanoma) | TGI (MDA-MB-231 breast) | TGI (SK-MEL-28 melanoma) | TGI (SK-OV-3 ovarian) | TGI (OVCAR-4 ovarian) | TGI (T-47D breast) | TGI (BT-549 breast) | TGI (HOP-92 NSCLC) | TGI (NCI-H226 lung) | TGI (NCI/ADR-RES ovarian) | TGI (UACC-257 melanoma) | TGI (U251 CNS) | TGI (HS 578T breast) | TGI (CAKI-1 renal) | TGI (SF-268 CNS) | TGI (HOP-62 NSCLC) | TGI (OVCAR-8 ovarian) | TGI (RXF 393 renal) | TGI (SF-539 CNS) | TGI (TK-10 renal) | TGI (LOX IMVI melanoma) | TGI (A549 NSCLC) | TGI (HCT-15 colon) | TGI (OVCAR-5 ovarian) | TGI (NCI-H23 lung) | TGI (K-562 leukemia) | TGI (EKVX NSCLC) | TGI (ACHN renal) | TGI (SNB-19 CNS) | TGI (M14 melanoma)
789 nM: TGI (COLO 205 colon)
5220 nM: TGI (NCI-H460 lung)
> 42000 nM: TGI (HCC-2998 colon)
58 nM: TGI (NCI-H522 lung)
